The numbers were not newly measured in patent US7777051B2, “Asymmetric benzimidazoles and related compounds as potassium channel modulators” (Icagen, Inc., priority 2003, dated 2010), which cites them from elsewhere.

Data set [1] addresses T1, recombinant human SK4 (hIK1 or hKCa4) channels (Homo sapiens, UniProt O15554+P0DP23).
T1 construct: host or cells: HEK 293 cells (transfected, membrane patches)
The note with it: applied to the inside of membrane patches, concentrations up to 100 μM; HEK 293.

The test system of data set [2] is SK channels.
Data set [3] addresses SK2 subtype channels (Rattus norvegicus, UniProt P70604). Conditions: patch clamp.

Consider calcium, for which the “activation of SK4 channels” value in data set [1] is “activated SK4 channels in a concentration-dependent manner”.

Take strontium: the “activation of SK4 channels” value in data set [1] is “activated SK4 channels in a concentration-dependent manner”.

Regarding lead, the “activation of SK4 channels” value in data set [1] is listed as “activated SK4 channels in a concentration-dependent manner”.

With `O=C1N(c2ccccc2)c2ccccc2C1(Cc1ccncc1)Cc1ccncc1` [linopirdine], the “inhibition of SK channels” value in data set [2] is recorded as “ineffective at inhibiting SK channels”.

Regarding cobalt, in data set [1], the “activation of SK4 channels” value is on record as “did not activate the SK4 channels”.

For `CN(C)CCC=C1c2ccccc2CCc2ccccc21` [amitriptyline], in data set [3], the “block of SK2 channel currents” value was “block SK2 channel currents with micromolar affinity”.

Turning to zinc, the “activation of SK4 channels” value in data set [1] was “did not activate the SK4 channels”.

For iron, the “activation of SK4 channels” value in data set [1] is “did not activate the SK4 channels”.

Regarding cadmium, the “activation of SK4 channels” value in data set [1] is “activated SK4 channels in a concentration-dependent manner”.

In the case of Barium, the “activation of SK4 channels” value in data set [1] was “activated SK4 channels in a concentration-dependent manner”.

For the compound `NC(=O)N1c2ccccc2C=Cc2ccccc21` [carbamazepine], in data set [3], the “block of SK2 channel currents” value is given as “block SK2 channel currents with micromolar affinity”.

With magnesium, the “activation of SK4 channels” value in data set [1] is recorded as “did not activate the SK4 channels”.

As to `Nc1c2c(nc3ccccc13)CCCC2` [tacrine], the “block of SK2 channel currents” value in data set [3] is listed as “block SK2 channel currents with micromolar affinity”.
